This is an account of results in patent US9918985B2, “Compounds and their use as BACE inhibitors” (ASTRAZENECA AB, priority 2010, dated 2018).

Sequence of human β-Secretase (soluble part, sBACE-Fc) (P56817 22-460): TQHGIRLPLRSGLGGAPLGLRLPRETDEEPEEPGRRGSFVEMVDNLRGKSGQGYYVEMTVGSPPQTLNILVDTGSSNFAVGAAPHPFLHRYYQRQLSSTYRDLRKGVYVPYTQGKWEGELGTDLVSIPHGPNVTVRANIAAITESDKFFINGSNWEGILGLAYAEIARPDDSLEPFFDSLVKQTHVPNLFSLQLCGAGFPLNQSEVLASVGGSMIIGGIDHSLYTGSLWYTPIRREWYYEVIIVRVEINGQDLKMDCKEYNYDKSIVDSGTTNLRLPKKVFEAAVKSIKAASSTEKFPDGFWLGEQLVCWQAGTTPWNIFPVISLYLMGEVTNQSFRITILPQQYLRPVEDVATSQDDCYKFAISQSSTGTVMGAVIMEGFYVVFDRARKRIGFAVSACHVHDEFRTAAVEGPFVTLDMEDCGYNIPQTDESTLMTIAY

The first test concerns sAPPβ release in SH-SY5Y cells. The test can be described thus: sAPPβ release assay. The note with it: 17 h incubation. In kind it is cell-based. Here is the method:
Thaw cells and seed at a conc. of around 10000 cells/well in DMEM/F-12 with Glutamax, 10% FCS and 1% non-essential amino acids to a 384-well tissue culture treated plate, 100 μL cell susp/well. […] The cell medium was removed, followed by addition of 30 μL compound diluted in DMEM/F-12 with Glutamax, 10% FCS, 1% non-essential amino acids and 1% PeSt to a final conc. of 1% DMSO. The compounds were incubated with the cells for 17 h (overnight) at 37° C., 5% CO2. Meso Scale Discovery (MSD) plates were used for the detection of sAPPIβ release. MSD sAPPIβ plates were blocked in 1% BSA in Tris wash buffer (40 μL/well) for 1 h on shake at r.t. and washed 1 time in Tris wash buffer (40 μL/well). 20 μL of medium was transferred to the pre-blocked and washed MSD sAPPIβ microplates, and the cell plates were further used in an ATP assay to measure cytotoxicity. The MSD plates were incubated with shaking at r.t. for 2 h and the media discarded. 10 μL detection antibody was added (1 nM) per well followed by incubation with shaking at r.t. for 2 h and then discarded. 40 μL Read Buffer was added per well and the plates were read in a SECTOR Imager.
As to `CCC1=NC2(N=C1N)c1cc(-c3cncc(Cl)c3)ccc1C[C@]21CC[C@@H](OC)CC1` (single isomer, unassigned; isomer 1) [Example 66 Isomer 1, (1r,4r)-6′-(5-chloropyridin-3-yl)-5″-ethyl-4-methoxy-3′H-dispiro[cyclohexane-1,2′-indene-1′,2″-imidazol]-4″-amine], the IC50 worked out at 1.6 nM.
Turning to `CC#Cc1cncc(-c2ccc3c(c2)C2(N=C(N)C(CC)=N2)[C@]2(CC[C@H](OC)CC2)C3)c1` (single isomer, unassigned; isomer 1) [Example 68 Isomer 1, (1r,4r)-5″-ethyl-4-methoxy-6′-[5-(prop-1-yn-1-yl)pyridin-3-yl]-3′H-dispiro[cyclohexane-1,2′-indene-1′,2″-imidazol]-4″-amine], half-maximal inhibition (IC50) was put at 0.38 nM.
Still for that read-out and setting: the value for `CCC1=NC2(N=C1N)c1cc(-c3cccc(C#N)c3)ccc1C[C@]21CC[C@@H](OC)CC1` (single isomer, unassigned; isomer 1) [Example 71 Isomer 1, 3-[(1r,4r)-4″-amino-5″-ethyl-4-methoxy-3′H-dispiro-[cyclohexane-1,2′-indene-1′,2″-imidazol]-6′-yl]benzonitrile] was 5.2 nM; that for `CCC1=NC2(N=C1N)c1cc(-c3cccc(C#N)c3)ccc1C[C@]21CC[C@@H](OC)CC1` (single isomer, unassigned; isomer 2) [Example 71 Isomer 2, 3-[(1r,4r)-4″-amino-5″-ethyl-4-methoxy-3′H-dispiro-[cyclohexane-1,2′-indene-1′,2″-imidazol]-6′-yl]benzonitrile] was 763 nM.

The next test concerns the target human β-Secretase (soluble part, sBACE-Fc) (Homo sapiens (Human), UniProt P56817). The test can be described thus: TR-FRET assay. The format is biochemical. To be noted: standard TR-FRET assay, 15 minutes reaction at r.t. Here is the method:
The β-secretase enzyme used in the TR-FRET is prepared as follows:
The cDNA for the soluble part of the human β-Secretase (AA 1-AA 460) was cloned using the ASP2-Fc10-1-IRES-GFP-neoK mammalian expression vector. The gene was fused to the Fc domain of IgG1 (affinity tag) and stably cloned into HEK 293 cells.
The robotic systems Biomek FX and Velocity 11 were used for all liquid handling and the enzyme and substrate solutions were kept on ice until they were placed in the robotic system. Enzyme (9 μl) was added to the plate then 1 μl of compound in dimethylsulphoxide was added, mixed and pre-incubated for 10 minutes. Substrate (10 μl) was then added, mixed and the reaction proceeded for 15 minutes at r.t. The reaction was stopped with the addition of Stop solution (7 μl, NaAcetate, pH 9). […] The dimethylsulphoxide control, instead of test compound, defined the 100% activity level and 0% activity was defined by wells lacking enzyme (replaced with reaction buffer).
Regarding `CO[C@H]1CC[C@]2(CC1)Cc1ccc(-c3ccc(F)cc3F)cc1[C@@]21N=C(C)C(N)=N1` [Example 103, (1r,1′R,4R)-6′-(2,4-Difluorophenyl)-4-methoxy-5″-methyl-3′H-dispiro[cyclohexane-1,2′-indene-1′,2″-imidazol]-4″-amine], the IC50 was 34 nM.
With `CCO[C@H]1CC[C@]2(CC1)Cc1ccc(Br)cc1C21N=C(C)C(N)=N1` (stereo partly drawn) [Example 130, (1r,4r)-6′-Bromo-4-ethoxy-5″-methyl-3′H-dispiro[cyclohexane-1,2′-indene-1′,2″-imidazol]-4″-amine], 842 nM corresponded to half-maximal inhibition (IC50).

What is called IC50 is the concentration that gives 50% inhibition. A higher IC50 goes with weaker potency in that assay.
